The source of these data is PMC13077603, “Fluorine‐18‐Labeled Nucleotide Analogs Targeting Ecto‐5'‐Nucleotidase (CD73) for Positron Emission Tomography Imaging of Solid Tumors” (Angewandte Chemie (International Ed. in English), 2026).

Series [1] in a line: logD7.4 determination of radiotracers (PBS/octan-1-ol). Type of series: physicochemical. The settings on record: octan-1-ol/PBS; PBS pH 7.4 / octan-1-ol, radiotracer. The protocol: The logD 7.4 values of both radiotracers were determined using a previously described method based on their distribution between phosphate‐buffered saline (PBS) and octan‐1‐ol.
Triazole radiotracers (~400 kBq) in PBS buffer (10 µL, pH 7.4) were added to PBS buffer (590 µL, pH 7.4) and octan-1-ol (600 µL). The two-layer mixture was shaken for 3 min on a vortex mixer at r.t. and centrifuged (200 g) for 5 min. The main part of the octanol layer (400 µL) was carefully collected and transferred to a new tube containing PBS buffer (400 µL, pH 7.4). The two-layer mixture was shaken again for 10 min and centrifuged for 5 min (200 g). Three samples were prepared, and two aliquots (á 100 µL) of both layers were measured in a gamma-counter 2480 Wizard2 (Perkin-Elmer, Waltham, USA). The partition coefficient was determined by dividing cpm (octanol) by cpm (PBS) and indicated as logD7.4 (exp.).

Series [2] is described as follows: PET/gamma counter biodistribution in healthy mice. Format: in vivo, C57BL/6 WT mice. The protocol: Next, biodistribution studies of compounds [^18F]1 and [^18F]2 were performed in female C57BL/6 WT mice. Dynamic (0–90 min), static (77–90 min), and late (240–260 min) scans were performed in a small animal PET scanner. Each PET scan was combined with computer tomography (CT). In the case of [^18F]2, […] of the tracer was excreted within the first 30 min via renal (19%ID) and hepatobiliary (60%ID, Figure 5A–C) routes. After 90 min, most of the tracer was found in the intestine, gallbladder, bladder (urine), and liver, while only 0.3 ± 0.1 %ID/mL of the radiosignal was detected in the blood at that time point (Figure 5B, C). Concentrations in the lung, heart, muscle, and brain were also relatively low. Nevertheless, during the first 3 min, the tracer was distributed within the whole body, reaching every tissue (Figure 5A).
The radiotracer [^18F]1 was injected into the tail vein, entered the heart, and was subsequently distributed throughout the whole body. […] Nearly no tracer accumulated in brain and urinary bladder, facilitating a favorable signal‐to‐noise ratio. We prolonged the imaging and performed an additional PET scan after 260 min to further increase the signal‐to‐background ratio. In all investigated residual organs (kidney, lung, heart, liver, and spleen), [^18F]1 was present even after 260 min, indicating a favorable biodistribution and high metabolic stability in vivo (Figure 5F).
Adult C57bl/6 (biodistribution study, 19.8±1.3 g) or tumor-bearing NSG mice (22.2±2.2 g) were anesthetized by isoflurane/O2, and one lateral tail vein was cannulated using a 27 G needle. A respective radiotracer (~ 390 kBq/g body weight) was injected as a bolus via the tail vein, and subsequent PET scanning was performed. A ~1000-fold excess of unlabeled JMS0414 (14 for [^18F]MRS-4648 ([^18F]2)), unlabeled PSB-19427 (1), or PSB-12651 (15) (for [^18F]PSB-19427 ([^18F]1)) was injected into a subgroup of tumor-bearing mice 10 min before radiotracer injection in the blocking studies. PET imaging studies were carried out using a submillimeter high resolution (0.7 mm full width at half-maximum) small animal scanner (32 module quadHIDAC, Oxford Positron Systems Ltd., Oxford, UK) with a uniform spatial resolution (<1 mm) over a large cylindrical field (165 mm diameter, 280 mm axial length). List-mode data were acquired for 90 min and reconstructed into dynamic time frames using an iterative reconstruction algorithm. In a subgroup of mice, measurements were complemented by late time point PET scans for 20 min 4 h after injection. Subsequently, after PET acquisitions, the scanning bed was transferred to the computed tomography (CT) scanner (Inveon, Siemens Medical Solutions, U.S.), and a CT acquisition with a spatial resolution of 80 μm was performed for each mouse. Final acquisitions were performed as contrast-enhanced CT with i.v. injection of iopromid (Ultravist®370). Reconstructed image data sets were coregistered based on extrinsic markers attached to the multimodal scanning bed, and the in-house developed image analysis software MEDgical (EIMI) was used for quantification. Three-dimensional volumes of interest (VOIs) were defined over the respective organs in CT data sets, transferred to the coregistered PET data, and analyzed quantitatively. Regional uptake was calculated as the percentage of injected dose by dividing counts per min (cpm) in the VOI by total counts in the mouse multiplied by 100 (%ID/mL). The clearance of the radiotracers was calculated based on the PET results. PET imaging studies using [^18F]FDG were performed analogously with a few variations. List-mode data were acquired for 60-75 min after tracer injection and reconstructed using an iterative reconstruction algorithm. Additionally, the scanned mice remained alive after PET and CT scans and were used the next day for imaging experiments with [^18F]PSB-19427 ([^18F]1) for direct comparison of [^18F]FDG and [^18F]PSB-19427 ([^18F]1). […]

The target of series [3] is T1, Soluble recombinant human CD73 (Homo sapiens, UniProt P21589).
T1 sequence (P21589 27-549 limits assumed): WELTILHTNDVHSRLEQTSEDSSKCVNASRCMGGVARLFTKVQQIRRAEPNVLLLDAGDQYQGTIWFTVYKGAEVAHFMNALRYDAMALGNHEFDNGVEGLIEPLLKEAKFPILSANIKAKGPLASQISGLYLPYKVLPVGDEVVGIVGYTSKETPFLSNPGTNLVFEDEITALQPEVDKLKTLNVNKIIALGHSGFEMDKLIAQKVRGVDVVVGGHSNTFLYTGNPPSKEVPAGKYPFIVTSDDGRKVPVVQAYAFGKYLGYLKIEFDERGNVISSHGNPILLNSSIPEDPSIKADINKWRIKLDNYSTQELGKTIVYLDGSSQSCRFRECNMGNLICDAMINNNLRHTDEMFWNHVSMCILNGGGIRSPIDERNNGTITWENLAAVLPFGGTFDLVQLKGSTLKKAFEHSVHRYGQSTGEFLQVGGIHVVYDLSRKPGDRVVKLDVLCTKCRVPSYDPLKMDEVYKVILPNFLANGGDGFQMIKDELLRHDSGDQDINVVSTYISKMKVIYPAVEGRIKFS
The series can be described thus: CD73 enzyme inhibition assay, soluble recombinant human CD73. Format: biochemical. The settings on record: soluble recombinant human CD73, Km 17 µM, substrate AMP (5 µM). How it is done:
Both compounds were evaluated for metabolic stability in mouse liver microsomes (MLM) and plasma protein binding (PPB) (Table 1).
The CD73 enzyme inhibition assay of recombinant soluble CD73, membrane-bound human CD73, soluble rat CD73 and mouse CD73 was performed as previously described.^[16,35^]

Turning to `CCCN(Cc1ccc(-c2cn(CC[18F])nn2)cc1)c1nc(Cl)nc2c1ncn2[C@@H]1O[C@H](COP(=O)(O)CP(=O)(O)O)[C@@H](O)[C@H]1O` [[^18F]1, [^18F]-[((2R,3S,4R,5R)-5-{2-chloro-6-[(4-{1-[2-(fluoro)ethyl]-1H-1,2,3-triazol-4-yl}benzyl)-(propyl)amino]-9H-purin-9-yl}-3,4-dihydroxytetrahydrofuran-2-yl)methoxy]methylene-bisphosphonic acid], the logD in series [1] is -0.12. In addition, in series [2] (at 90 min p.i.), the Hepatobiliary excretion route was 37 %ID and the “Radiosignal proportion in the blood” value is listed as 18.2% ± 1.7 %ID/g. The Renal excretion route in series [2] (time not given) was found to be 2 %ID. Further, the inhibitory constant (Ki) in series [3] was found to be 1.02 ± 0.11 nM.

As to `Cn1c(=O)n([C@@H]2O[C@H](COP(=O)(O)CP(=O)(O)O)[C@@H](O)[C@H]2O)cc/c1=N/OCc1ccc(-c2cn(CC[18F])nn2)cc1` [[^18F]2, [^18F]-{[(2R,3S,4R,5R)-5-(4-{[(4-{1-[2-(fluoro)ethyl]-1H-1,2,3-triazol-4-yl}benzyl)-oxy]imino}-3-methyl-2-oxo-3,4-dihydropyrimidin-1(2H)-yl)-3,4-dihydroxytetra-hydrofuran-2-yl]methoxy}methylenebisphosphonic acid], the log distribution coefficient (logD) in series [1] is 0.74 ± 0.29. In series [2] (after 90 min), this compound yielded a Radiosignal in blood of 0.3 ± 0.1 %ID/mL. Besides, in series [2] (within the first 30 min), the Hepatobiliary excretion is 60 %ID and the Renal excretion was found to be 19 %ID. Moreover, in series [2] (within the first 30 min, i.v., female C57BL/6 WT mice), the “Fraction of tracer excreted” value is given as above 95%. Moreover, the Ki in series [3] was found to be 0.664 ± 0.089 nM.

Regarding `CCCN(Cc1ccc(-c2cn(CCF)nn2)cc1)c1nc(Cl)nc2c1ncn2[C@@H]1O[C@H](COP(=O)(O)CP(=O)(O)O)[C@@H](O)[C@H]1O` [compound 1], the pH-dependent lipophilicity (logD) in series [1] was -0.12 ± 0.03. In addition, the inhibition constant (Ki) in series [3] came out at 1.02 nM.
